# From patent US8618111B2, “5-alkynyl-pyrimidines” (Boehringer Ingelheim International GmbH, priority 2010, dated 2013)
# pEC50, pIC50: −log10 of the molar value.
# Tests used:
# mTOR = mTOR (Homo sapiens (Human), UniProt P42345); assay: mTOR kinase activity assay (phosphorylation status of mTOR substrate 4E-BP1; TR-FRET); assay type: biochemical; details: GFP-4E-BP1 substrate, 8 μM ATP
# PI3Kalpha = PI3Kalpha (Homo sapiens (Human), UniProt P42336); assay: Inhibition of PI3Kalpha-induced PIP-2 phosphorylation (filter-binding assay); assay type: biochemical; details: 33P-ATP
# Procedure: Inhibition of PI3Kalpha-Induced PIP-2 Phosphorylation
# Method Type: Filter-Binding-Assay
# Aliquoted in desired amounts and stored at −80° C. Final assay concentration 25 ng/well.
# BT474 = BT474 cell assay (EC50); assay type: cell-based; details: Homo sapiens, BT-474; BT474 cells
# [1] = system: U87MG human glioblastoma cell line; assay: CyQuant assay in U87MG cells; assay type: cell-based; details: U-87 MG, 72 h, 3 days incubation
# Procedure: CyQuant Assay in U87MG Cells
# 3. […] Evaluation • Calculate EC50 using GraphPad Prism (Fifty)
# mTOR, sequence (P42345 1360-2549): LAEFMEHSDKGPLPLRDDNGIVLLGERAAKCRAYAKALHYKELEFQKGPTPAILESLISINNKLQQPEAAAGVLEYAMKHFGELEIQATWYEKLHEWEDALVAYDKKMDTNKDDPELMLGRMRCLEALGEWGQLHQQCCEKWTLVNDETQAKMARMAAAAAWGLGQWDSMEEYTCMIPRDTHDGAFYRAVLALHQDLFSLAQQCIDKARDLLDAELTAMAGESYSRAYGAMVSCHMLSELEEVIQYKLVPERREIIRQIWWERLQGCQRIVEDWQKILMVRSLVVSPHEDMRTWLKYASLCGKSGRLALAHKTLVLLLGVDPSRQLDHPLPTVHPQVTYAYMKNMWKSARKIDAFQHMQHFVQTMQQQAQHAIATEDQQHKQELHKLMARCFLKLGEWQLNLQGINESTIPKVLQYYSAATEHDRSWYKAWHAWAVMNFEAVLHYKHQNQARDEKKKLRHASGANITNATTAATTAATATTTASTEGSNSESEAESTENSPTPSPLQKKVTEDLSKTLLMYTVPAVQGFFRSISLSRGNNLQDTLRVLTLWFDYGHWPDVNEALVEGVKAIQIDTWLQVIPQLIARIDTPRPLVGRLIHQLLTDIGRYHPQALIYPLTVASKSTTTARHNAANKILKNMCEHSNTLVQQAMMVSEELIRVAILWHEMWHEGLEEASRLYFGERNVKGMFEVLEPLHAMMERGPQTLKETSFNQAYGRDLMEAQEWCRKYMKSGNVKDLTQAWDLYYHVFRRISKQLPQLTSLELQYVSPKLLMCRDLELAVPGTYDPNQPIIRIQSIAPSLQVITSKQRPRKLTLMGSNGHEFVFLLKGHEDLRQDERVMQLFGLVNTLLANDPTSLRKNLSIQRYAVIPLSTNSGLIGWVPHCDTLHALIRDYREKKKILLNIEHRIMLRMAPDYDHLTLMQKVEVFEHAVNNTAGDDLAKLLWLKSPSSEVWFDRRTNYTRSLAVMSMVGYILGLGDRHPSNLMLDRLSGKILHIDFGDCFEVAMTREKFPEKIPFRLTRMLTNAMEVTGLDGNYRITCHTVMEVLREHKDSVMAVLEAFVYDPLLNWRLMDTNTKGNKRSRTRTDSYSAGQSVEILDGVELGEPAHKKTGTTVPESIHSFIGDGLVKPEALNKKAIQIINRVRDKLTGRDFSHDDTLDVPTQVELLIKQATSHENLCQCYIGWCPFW
# PI3Kalpha, sequence (P42336 whole entry, species assumed): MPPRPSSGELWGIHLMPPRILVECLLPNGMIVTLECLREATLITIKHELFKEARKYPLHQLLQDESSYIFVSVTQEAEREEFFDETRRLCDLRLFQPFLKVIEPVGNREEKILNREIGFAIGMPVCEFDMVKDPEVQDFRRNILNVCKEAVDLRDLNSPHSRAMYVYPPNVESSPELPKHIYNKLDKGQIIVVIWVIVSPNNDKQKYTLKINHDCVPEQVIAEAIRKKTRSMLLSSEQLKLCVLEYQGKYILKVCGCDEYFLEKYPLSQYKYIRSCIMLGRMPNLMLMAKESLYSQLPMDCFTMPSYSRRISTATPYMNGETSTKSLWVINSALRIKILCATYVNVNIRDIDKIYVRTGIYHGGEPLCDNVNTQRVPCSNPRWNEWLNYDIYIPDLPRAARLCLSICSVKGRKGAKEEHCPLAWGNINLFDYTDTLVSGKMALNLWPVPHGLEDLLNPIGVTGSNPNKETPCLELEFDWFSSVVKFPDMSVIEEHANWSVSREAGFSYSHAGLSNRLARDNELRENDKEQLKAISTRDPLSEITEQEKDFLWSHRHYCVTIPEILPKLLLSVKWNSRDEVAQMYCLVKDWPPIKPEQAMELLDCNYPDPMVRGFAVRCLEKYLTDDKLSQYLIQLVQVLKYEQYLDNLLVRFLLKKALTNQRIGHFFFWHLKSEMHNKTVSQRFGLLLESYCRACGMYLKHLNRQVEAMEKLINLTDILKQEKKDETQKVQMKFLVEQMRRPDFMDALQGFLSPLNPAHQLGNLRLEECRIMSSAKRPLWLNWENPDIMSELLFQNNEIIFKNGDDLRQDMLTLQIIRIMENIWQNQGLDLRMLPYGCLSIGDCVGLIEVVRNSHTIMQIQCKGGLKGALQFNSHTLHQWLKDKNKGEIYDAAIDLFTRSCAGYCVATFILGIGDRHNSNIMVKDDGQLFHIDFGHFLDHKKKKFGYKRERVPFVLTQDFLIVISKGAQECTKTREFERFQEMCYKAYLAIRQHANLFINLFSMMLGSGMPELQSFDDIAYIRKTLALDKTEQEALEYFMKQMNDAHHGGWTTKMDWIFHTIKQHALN
# PI3Kalpha, sequence (P27986 whole entry partner, species assumed): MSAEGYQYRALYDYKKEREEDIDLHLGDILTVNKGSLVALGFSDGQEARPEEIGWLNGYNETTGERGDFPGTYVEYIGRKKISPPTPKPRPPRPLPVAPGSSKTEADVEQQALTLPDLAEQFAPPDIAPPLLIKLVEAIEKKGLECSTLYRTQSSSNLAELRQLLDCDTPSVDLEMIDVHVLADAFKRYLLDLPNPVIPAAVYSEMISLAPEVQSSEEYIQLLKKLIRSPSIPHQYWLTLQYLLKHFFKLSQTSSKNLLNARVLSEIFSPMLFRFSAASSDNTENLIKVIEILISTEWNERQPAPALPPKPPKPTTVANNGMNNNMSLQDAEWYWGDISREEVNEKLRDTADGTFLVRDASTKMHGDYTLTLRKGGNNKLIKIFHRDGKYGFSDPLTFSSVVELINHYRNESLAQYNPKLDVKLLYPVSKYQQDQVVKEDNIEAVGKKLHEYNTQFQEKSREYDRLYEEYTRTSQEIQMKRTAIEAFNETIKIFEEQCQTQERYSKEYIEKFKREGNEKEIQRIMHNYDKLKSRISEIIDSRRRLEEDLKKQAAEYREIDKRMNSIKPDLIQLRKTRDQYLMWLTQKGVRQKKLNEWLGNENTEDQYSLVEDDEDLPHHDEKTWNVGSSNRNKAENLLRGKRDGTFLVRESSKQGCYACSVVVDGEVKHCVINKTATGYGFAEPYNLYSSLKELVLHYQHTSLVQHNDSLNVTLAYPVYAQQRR
SMILES,pIC50 (mTOR),IC50 PI3Ka (PI3Kalpha) [µM],pEC50 (BT474),pEC50 [1]
CCc1ncnc(N2CCN(C)C(=O)C2)c1C#Cc1ccc(N)nc1 [Example H-13],7.43,0.072,7.12,
CCc1ncnc(N2CCN(c3cccnc3)CC2)c1C#Cc1ccc(N)nc1 [Example H-23],7.85,0.048,6.86,
CCc1ncnc(N2CCN(CCNS(C)(=O)=O)CC2)c1C#Cc1ccc(N)nc1 [Example H-14],7.74,0.06,7.20,
CCc1ncnc(N2CCN(C(C)C)CC2)c1C#Cc1ccc(N)nc1 [Example H-6],7.82,0.055,7.14,
CCc1ncnc(N2CCN(c3ccccc3)CC2)c1C#Cc1ccc(N)nc1 [Example H-24],7.05,0.129,7.11,
CCc1ncnc(N2CCN(c3ncccn3)CC2)c1C#Cc1ccc(N)nc1 [Example H-25],7.85,0.048,7.82,
CCc1ncnc(N2CCCCC2)c1C#Cc1ccc(NC)nc1 [Example H-1],7.26,0.214,,6.13
CCc1ncnc(N2CCc3ncncc3C2)c1C#Cc1ccc(N)nc1 [Example H-11],7.57,0.05,7.03,
CCc1ncnc(N2CCC3(CC2)COC3)c1C#Cc1ccc(N)nc1 [Example H-7],6.86,0.097,6.03,
CCc1ncnc(N2CCN(CC(C)O)CC2)c1C#Cc1ccc(N)nc1 (stereo not drawn) [Example H-20],7.29,0.152,6.86,
